Results taken from paper PMC6576746, “Rational discovery of dual-indication multi-target PDE/Kinase inhibitor for precision anti-cancer therapy using structural systems pharmacology” (PLoS Computational Biology, 2019).

How the values were obtained:
Experiment in all cases: cells
Parameters in all cases: species or system panel of human cancer cell lines; Eurofins OncoPanel proliferation; nuclei count by high-content fluorescence imaging, 10-point dose response
[1] = test system: PSN-1; conditions: Homo sapiens, PSN1, 72 h, cell count, 3 days
Method in brief: (§1)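 Cells in RPMI 1640/10% FBS or special medium received compound the day after seeding, with a time-zero plate; 3-day incubation at 37°C, 5% CO2. Nuclei imaged by fluorescence microscopy; 10 half-log doses from 100 μM, 0.1% DMSO. EC50, IC50, GI50 and activity area (0–10) from curve fits.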

[2] = test system: NALM-6; conditions: Homo sapiens, NALM-6, 72 h, cell count, 3 days
Method in brief: as §1

[3] = test system: HT-3; conditions: Homo sapiens, HT-3, 72 h, cell count, 3 days
Method in brief: as §1

[4] = test system: SU-DHL-10; conditions: Homo sapiens, SU-DHL10, 72 h, cell count, 3 days
Method in brief: as §1

[5] = test system: J82; conditions: Homo sapiens, J82, 72 h, cell count, 3 days
Method in brief: as §1

[6] = test system: KHOS-240S; conditions: KHOS-240S, 72 h, cell count, 3 days
Method in brief: as §1

[7] = test system: DK-MG; conditions: 72 h, cell count, 3 days
Method in brief: as §1

[8] = test system: CRO-AP2; conditions: Homo sapiens, CRO-AP2, 72 h, cell count, 3 days
Method in brief: as §1

[9] = test system: Hs 888.Sk; conditions: 72 h, cell count, 3 days
Method in brief: as §1

[10] = test system: DBTRG-05MG; conditions: Homo sapiens, DBTRG-05MG, 72 h, cell count, 3 days
Method in brief: as §1

[11] = test system: BT20; conditions: Homo sapiens, BT-20, 72 h, cell count, 3 days
Method in brief: as §1

[12] = test system: BM-1604; conditions: BM-1604, 72 h, cell count, 3 days
Method in brief: as §1

[13] = test system: A-253; conditions: Homo sapiens, A253, 72 h, cell count, 3 days
Method in brief: as §1

[14] = test system: NCI-H596; conditions: Homo sapiens, NCI-H596, 72 h, cell count, 3 days
Method in brief: as §1

[15] = 50% of maximum possible response

`C[C@@H]1CC(=O)NN=C1c1ccc(NN=C(C#N)C#N)cc1` [levosimendan] was tested. Which IC50 [1, 15] did it give?
The IC50 was 12.8 µM.

What about the GI50 ([1]; corrected for time zero) of the same compound?
Its GI50 is 11.6 µM.

And the EC50 ([1]; curve inflection point)?
Its EC50 is 11.8 µM.

What about the IC50 [2, 15] of the same compound?
Its IC50 is 30.8 µM.

And the GI50 ([2]; corrected for time zero)?
Its GI50 is 23.4 µM.

And the EC50 ([2]; curve inflection point)?
The EC50 was 30.8 µM.

And the IC50 [3, 15]?
The IC50 was 91.3 µM.

What about the GI50 ([3]; corrected for time zero) of the same compound?
Its GI50 is 48.5 µM.

And the EC50 ([3]; curve inflection point)?
Its EC50 is 91.3 µM.

And the IC50 [4, 15]?
Its IC50 is 13.3 µM.

What about the GI50 ([4]; corrected for time zero) of the same compound?
Its GI50 is 12 µM.

What about the EC50 ([4]; curve inflection point) of the same compound?
The EC50 was 13.3 µM.

And the IC50 [5, 15]?
Its IC50 is > 100 µM.

What about the GI50 ([5]; corrected for time zero) of the same compound?
The GI50 was > 100 µM.

And the EC50 ([5]; curve inflection point)?
Its EC50 is > 100 µM.

What about the IC50 [6, 15] of the same compound?
Its IC50 is 16.9 µM.

And the GI50 ([6]; corrected for time zero)?
Its GI50 is 13.5 µM.

What about the EC50 ([6]; curve inflection point) of the same compound?
The EC50 was 16.9 µM.

What about the IC50 [7, 15] of the same compound?
Its IC50 is > 100 µM.

And the GI50 ([7]; corrected for time zero)?
Its GI50 is 49.4 µM.

What about the EC50 ([7]; curve inflection point) of the same compound?
The EC50 was > 100 µM.

And the IC50 [8, 15]?
The IC50 was 10.3 µM.

And the GI50 ([8]; corrected for time zero)?
The GI50 was 8.29 µM.

And the EC50 ([8]; curve inflection point)?
Its EC50 is 9.97 µM.

What about the IC50 [9, 15] of the same compound?
The IC50 was > 100 µM.

What about the GI50 ([9]; corrected for time zero) of the same compound?
Its GI50 is 47.6 µM.

What about the EC50 ([9]; curve inflection point) of the same compound?
The EC50 was > 100 µM.

And the IC50 [10, 15]?
Its IC50 is 75.6 µM.

What about the GI50 ([10]; corrected for time zero) of the same compound?
The GI50 was 41.4 µM.

And the EC50 ([10]; curve inflection point)?
The EC50 was 75.6 µM.

And the IC50 [11, 15]?
Its IC50 is > 100 µM.

And the GI50 ([11]; corrected for time zero)?
Its GI50 is 64.2 µM.

And the EC50 ([11]; curve inflection point)?
Its EC50 is > 100 µM.

What about the IC50 [12, 15] of the same compound?
Its IC50 is 12.6 µM.

What about the GI50 ([12]; corrected for time zero) of the same compound?
The GI50 was 7.44 µM.

What about the EC50 ([12]; curve inflection point) of the same compound?
Its EC50 is 12.6 µM.

And the IC50 [13, 15]?
The IC50 was 62.4 µM.

And the GI50 ([13]; corrected for time zero)?
The GI50 was 41.7 µM.

What about the EC50 ([13]; curve inflection point) of the same compound?
The EC50 was 62.4 µM.

What about the IC50 [14, 15] of the same compound?
Its IC50 is > 100 µM.

What about the GI50 ([14]; corrected for time zero) of the same compound?
The GI50 was > 100 µM.

What about the EC50 ([14]; curve inflection point) of the same compound?
The EC50 was 55.5 µM.
